# Assay results taken from patent US11878013B2, “Isoquinoline derivative, preparing method thereof, and pharmaceutical composition for preventing or treating autophagy related diseases containing the same as an active ingredient” (Korea Research Institute of Chemical Technology, priority 2021, dated 2024).
# Experiments:
# zebrafish = assay: Whitening effect: melanin synthesis / melanocyte formation in zebrafish; assay type: in vivo
# Description: When observing the regeneration of melanin pigment, after inhibiting the formation of melanin pigment, it can be investigated by limiting it to the melanocyte generation pathway, and it is easy to observe the melanin synthesized in the initial stage of development. Therefore, zebrafish is more useful for the study of melanin pigment changes compared to other animal models (Logan D W, Burn S F, Jackson I J. (2006) Regulation of pigmentation in zebrafish melanophores. Pigment Cell Res. 2006 June; 19(3):206-13.).
# Particularly, zebrafish fertilized eggs 10 hours after fertilization were placed in a 24-well plate (10 eggs/well), and 1 ml of egg water was added to each well of the plate. The compound of Example 1 was added to each well at the concentrations of 0.1 μM and 1 μM, so that the final volume of each well was 2 ml. Then, each 24-well plate was wrapped in foil to block light, and then incubated in a 28° C. incubator for 22 hours. At 32 hours after fertilization, in order to photograph the formation of black melanocytes, the chorion of the developing embryo was peeled off using a forcep (Fine Science Tools). After anesthetizing the developing embryo with Tricaine (4 g/L), the embryo was photographed on 3% methyl cellulose. As the equipment for photographing the developing embryo, a LEICA MZ10F fluorescence microscope, a LEICA DFC425 camera, and Leica Application Suite software (v4.5) were used. In all the experimental procedures, egg water sterilized after dissolving 60 mg/L of sea salt (Sigma-Aldrich, S9883) in tertiary distilled water was used as a solution for culturing the developing embryo. As a control group, a solvent control group (0.4% DMSO) and phenylthiourea (200 μM PTU), known as a tyrosinase inhibitor, were used (FIG. 6A).
# In the same manner, experiments were performed with the compound of Comparative Example 1 at the concentrations of 0.5 μM, 1 μM, and 5 μM, and the results are shown in FIG. 6B.
# On the other hand, in order to confirm the ability of the compound of the present invention to inhibit the melanin synthesis of the already generated melanocytes, the following experiment was performed with juvenile fish 60 hours after fertilization. Particularly, juvenile fish 60 hours after fertilization were placed in a 24-well plate (10/well), and 1 ml of egg water was added to each well of the plate. The compound of Example 1 was added to each well at the concentrations of 10 μM and 20 μM, so that the final volume of each well was 2 ml. Then, each 24-well plate was wrapped in foil to block light, and then incubated in a 28° C. incubator for 12 hours. In order to photograph the formation of black melanocytes, the developing embryo was anesthetized with Tricaine (4 g/L), and then the embryo was photographed on 3% methyl cellulose. […]
# hERG channel protein = target: T1, hERG channel protein (Homo sapiens, UniProt Q12809); assay: hERG ligand binding test (fluorescence polarization); conditions: at 10 μM
# T1 construct: expressed in transfected cells; host or cells: HEK-293
# Method: In order to evaluate the possibility of inducing cardiotoxicity of the compound of Example 1 of the present invention in vivo, the inhibitory potential to the hERG (human ether-a-go-go related gene) K^+ channel protein, known as a main cause of arrhythmias, was tested.
# First, a ligand binding test was performed to evaluate the binding force of the compound of Example 1 binding to the hERG channel protein in vitro. A biological membrane containing the hERG channel protein was aliquoted in a 384-black well plate (10 μl/well) at room temperature, and DMSO, E-4031 (positive control), and the compound of Example 1 prepared to be 4 times the final test concentration were added thereto (5 μl/well). A tracer material with a fluorescent material attached to astemizole, known as a selective binding substance to the hERG channel protein, was dispensed into a mixture of the two solutions (5 μl/well), and then incubated for 2 hours at room temperature where light was blocked. In order to excite the tracer material included in the reaction solution, the light of 530 nm was irradiated and the light of 585 nm returned back was measured by the polarization method. […] The binding force of the test material to the hERG protein was expressed as the inhibition rate (%) compared to the group treated with DMSO.
# artificial skin tissue = assay: Skin toxicity test on artificial skin (MTT); assay type: cell-based
# Method: In order to evaluate the skin toxicity that may be induced upon skin contact of the compound of Example 1 of the present invention, the following experiment was performed using the artificial skin prepared with a structure similar to the skin of a living body.
# Particularly, the experiment was performed according to OECD Guideline for the Testing of Chemicals No. 439, OECD (2010) and the method recommended by the manufacturer (Tegoscience).
# First, the artificial skin cultured in agarose medium was transferred to a 12-well cell culture plate, to which culture medium was added, followed by culture in a humidified 37° C. 5% CO2 incubator for one day. The medium on the artificial skin culture surface was eliminated, and 90 μl of the compound of Example 1 of the present invention diluted with PBS was evenly applied to the skin surface, followed by incubation at room temperature for 15 minutes. The cell surface was washed twice with 10 ml of PBS, and a fresh culture medium was added, followed by incubation in a humidified 37° C. 5% CO2 incubator for 42 hours. In order to measure the viability of the skin, the artificial skin was transferred to a 12-well plate containing 2 ml of MTT solution (0.3 mg/ml), followed by culture for 3 hours. The stained artificial skin tissue was taken and transferred to a tube containing 500 μl of 0.04 N-isopropanol, and then incubated with shaking for 4 hours to decolorize. The solution was centrifuged at 13,000 rpm for 5 minutes, 100 μl of the supernatant was transferred to each well of a 96-well plate, and absorbance was measured at 570 nm.
# T1 sequence (Q12809 whole entry): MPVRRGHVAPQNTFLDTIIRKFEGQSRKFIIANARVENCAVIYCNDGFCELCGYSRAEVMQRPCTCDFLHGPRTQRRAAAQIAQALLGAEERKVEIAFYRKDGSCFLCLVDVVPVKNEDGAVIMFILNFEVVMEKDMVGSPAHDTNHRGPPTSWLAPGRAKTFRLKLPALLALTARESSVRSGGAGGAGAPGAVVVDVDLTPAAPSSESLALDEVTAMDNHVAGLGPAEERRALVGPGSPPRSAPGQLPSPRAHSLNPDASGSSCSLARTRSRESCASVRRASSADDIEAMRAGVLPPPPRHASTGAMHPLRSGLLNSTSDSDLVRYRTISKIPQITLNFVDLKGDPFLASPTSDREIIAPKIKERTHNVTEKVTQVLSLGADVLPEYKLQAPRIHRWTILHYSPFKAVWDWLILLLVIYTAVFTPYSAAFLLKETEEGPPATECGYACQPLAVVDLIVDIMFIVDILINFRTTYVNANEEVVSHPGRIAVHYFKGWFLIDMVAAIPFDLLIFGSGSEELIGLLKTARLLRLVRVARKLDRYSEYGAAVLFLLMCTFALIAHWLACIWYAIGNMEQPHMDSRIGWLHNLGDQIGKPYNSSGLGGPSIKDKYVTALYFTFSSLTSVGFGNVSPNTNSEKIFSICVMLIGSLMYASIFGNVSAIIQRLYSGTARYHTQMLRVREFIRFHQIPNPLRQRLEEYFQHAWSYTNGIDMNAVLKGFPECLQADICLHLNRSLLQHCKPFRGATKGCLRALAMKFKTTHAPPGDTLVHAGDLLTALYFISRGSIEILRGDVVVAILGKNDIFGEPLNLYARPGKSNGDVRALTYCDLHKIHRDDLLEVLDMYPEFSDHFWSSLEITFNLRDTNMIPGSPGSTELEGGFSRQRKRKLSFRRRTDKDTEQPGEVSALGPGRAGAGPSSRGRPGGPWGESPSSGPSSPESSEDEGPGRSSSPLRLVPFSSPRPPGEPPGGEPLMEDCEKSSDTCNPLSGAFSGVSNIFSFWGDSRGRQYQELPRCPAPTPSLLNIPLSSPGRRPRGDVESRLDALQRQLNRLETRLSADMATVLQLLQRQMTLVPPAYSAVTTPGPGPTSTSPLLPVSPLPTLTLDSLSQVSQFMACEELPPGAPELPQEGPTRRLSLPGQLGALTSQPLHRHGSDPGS
structure (smiles),measurement,setting,value
"[O-][S+](c1ccc(F)cc1)c1nccc2ccccc12 (stereo not drawn) [Example 1, 1-((4-Fluorophenyl)Sulfinyl)Isoquinoline]",synthesis of melanin,"zebrafish; 1 μM, treated 10 hours after fertilization, read at 32 hours after fertilization, PTU 200 μM as control",level similar to that in the group treated with PTU
same,melanin synthesis inhibitory effect,"zebrafish; 20 μM, treated 60 hours after fertilization, read at 72 hours after fertilization, compared to PTU 0.2 mM",superior melanin synthesis inhibitory effect compared to PTU
same,superior activity compared to Comparative Example 1 (melanin synthesis inhibition),"zebrafish; 32 hours after fertilization, 1 μM vs 5 μM for PTU-like effect",≥ 5 fold
same,inhibition of the binding of the hERG channel protein,hERG channel protein,about 10%
same,survival rate of artificial skin,"artificial skin tissue; 50 μM, the maximum concentration",slight decrease of the survival rate
same,survival rate of artificial skin,artificial skin tissue; up to 20 μM,no significant decrease of the survival rate
